Test results published in patent US7884131B2, “Oxylipins from long chain polyunsaturated fatty acids and methods of making and using the same” (Martek Biosciences, Corporation, priority 2004, dated 2011).
Entries after “also recorded” stand apart in the source; their conditions may differ.

Tests used:
[1] = tested on: total cell migration into air pouch exudates; assay: Mouse dorsal air pouch model: total cell migration; type: in vivo, C57/B16 mice; conditions: 100 ng docosanoid intra-pouch, 100 ng TNFα, 4 hours after TNFα
Excerpt: (§1) Pure 17R-hydroxy DHA (17R-HDHA) was purchased from Caymen Chemicals (Ann Arbor, Mich.). Docosanoids 17-hydroxy-DPAn-6 (17-HDPAn-6) and 10,17-dihydroxyDPAn-6 (10,17-HDPAn-6) were synthesized biogenically from DPAn-6 (NuChek Prep, Elysian, Minn.) using soybean 15-lipoxygenase (Sigma-Aldrich) and purified by HPLC as described in Example 2. Organic solvents were evaporated and the compounds were re-dissolved in phosphate buffered saline (PBS), filter sterilized and concentrations were adjusted to 1000 ng/ml using molar extinction coefficients of 28,000 and 40,000 M^−1cm^−1 for the mono- and dihydroxy docosanoids, respectively. Female C57/B16 mice (n=10 mice per group) were injected with sterile air subcutaneously in the back to initiate dorsal air pouches. Six days later, 0.9 ml sterile PBS followed by 100 ng docosanoid in 0.1 ml PBS or PBS alone were administered by intra-pouch injection. This injection was followed within 5 min by intra-pouch injection of 100 ng of mouse recombinant TNFα (Peprotech, Inc, NJ, USA) in 0.1 ml PBS. Control animals received no TNFα. As a positive control, 2 mg/kg indomethacin (Calbiochem, San Diego, Calif.) was administered intraperitoneally 30 min prior to administration of TNFα. Four hours after TNFα administration, air pouch exudates were removed and cells were stained with Turk's solution and counted. […]

[2] = tested on: macrophage chemotactic protein-1 (MCP-1); assay: Mouse dorsal air pouch model: MCP-1 in exudates; type: in vivo, C57/B16 mice; conditions: 100 ng docosanoid intra-pouch, 100 ng TNFα, 4 hours after TNFα, ELISA
Excerpt: as §1

IL-1β = assay: Mouse dorsal air pouch model: IL-1β in exudates; type: in vivo, C57/B16 mice; conditions: 100 ng docosanoid intra-pouch, 100 ng TNFα, 4 hours after TNFα, ELISA
Excerpt: as §1

[3] = tested on: human T lymphocytes stimulated with anti-CD3/anti-CD28 antibodies; assay: TNFα secretion by human T lymphocytes; type: cell-based; conditions: 6 hrs pretreatment, 41 hrs on anti-CD3/anti-CD28 coated wells, ELISA; difference at 10 nM p=0.037
Method: FIG. 22A: Effect of Docosanoids on TNFα Secretion by Human T Lymphocytes. The assay was performed essentially as described in Ariel et al, 2005. Briefly, human peripheral blood mononuclear cells were isolated from venous blood by Ficoll-Paque™ Plus (Amersham biosciences) gradient. T lymphocytes were isolated using a human T cell enrichment column (R&D Systems) per manufacturer's instructions. Purified T cells were treated with 10,17-dihydroxy DPAn-6 or 10,17-dihydroxy DHA or vehicle (0.05% ethanol) in RPMI-1640 media containing 10% heat inactivated fetal bovine serum for 6 hrs at 37° C. Lymphocytes (200,000 cells in 200 μl media per well) were then transferred to 96-well plates coated with both anti-CD3 antibody and anti-CD28 antibody (100 μl of 2 μg/ml of each antibody overnight to coat wells) and incubated for 41 hrs. TNFα concentrations were determined in cell supernatants by ELISA (R&D Systems). Group means±stdev (n=4) were compared by Student's t test. *p<0.05 and **p<0.01 compared to control; # indicates statistical difference (p=0.037) between the groups treated with 10,17-dihydroxy DPAn-6 and 10,17-dihydroxy DHA at the 10 nM concentrations.

[4] = tested on: inflammatory cytokine production; assay: Consumption of LCPUFA oils: inflammatory cytokine production; type: in vivo; conditions: consumption of the oil; DHA dose approximately three times higher in DHA alone than in the DHA+DPAn-6 oil
Soybean 15-lipoxygenase = biological target: T1, Soybean 15-lipoxygenase (Glycine max, UniProt P08170); assay: 15-lipoxygenase reaction with LCPUFA substrates; type: biochemical; conditions: 100 μM fatty acid, 4 μg/ml enzyme, 0.05M sodium borate buffer pH 9.0, 0° C., absorbance at 238 nm
T1 construct: purchased Sigma-Aldrich
T1 sequence (P08170 1-839): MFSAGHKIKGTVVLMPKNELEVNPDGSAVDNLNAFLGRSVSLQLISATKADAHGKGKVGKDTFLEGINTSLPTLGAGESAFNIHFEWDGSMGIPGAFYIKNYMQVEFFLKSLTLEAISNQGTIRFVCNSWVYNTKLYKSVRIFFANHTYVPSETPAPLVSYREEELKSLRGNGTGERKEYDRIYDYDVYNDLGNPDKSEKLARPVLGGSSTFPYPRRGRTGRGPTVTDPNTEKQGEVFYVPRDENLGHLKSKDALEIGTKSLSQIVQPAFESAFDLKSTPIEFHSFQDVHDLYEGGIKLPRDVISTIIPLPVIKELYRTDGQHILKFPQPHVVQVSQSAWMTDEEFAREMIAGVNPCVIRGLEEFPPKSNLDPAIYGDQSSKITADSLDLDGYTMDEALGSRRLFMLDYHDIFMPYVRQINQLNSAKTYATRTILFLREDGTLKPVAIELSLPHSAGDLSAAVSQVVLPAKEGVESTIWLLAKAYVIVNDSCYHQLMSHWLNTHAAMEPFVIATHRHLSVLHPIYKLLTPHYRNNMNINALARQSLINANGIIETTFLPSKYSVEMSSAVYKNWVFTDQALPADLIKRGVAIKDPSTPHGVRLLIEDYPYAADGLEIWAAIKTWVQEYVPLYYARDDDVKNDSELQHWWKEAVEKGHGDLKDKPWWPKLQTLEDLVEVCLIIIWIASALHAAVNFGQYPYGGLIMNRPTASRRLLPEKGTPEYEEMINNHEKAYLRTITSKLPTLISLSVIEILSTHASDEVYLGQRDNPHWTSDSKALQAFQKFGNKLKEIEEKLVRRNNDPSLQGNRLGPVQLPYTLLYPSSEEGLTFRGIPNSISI
Method: Soybean 15-lipoxygenase (Sigma-Aldrich, St. Louis, Mo.) at a final concentration of 4 μg/ml was mixed into 100 μM solutions of DHA, DPAn-6, or DPAn-3 (NuChek Prep, Elysian, Minn.) in 0.05M sodium borate buffer, pH 9.0, and the reaction mixtures were incubated at 0° C. Appearance of the mono-hydroxy conjugated diene derivatives of the fatty acids was monitored through absorbance at 238 nm. Conjugated diene products were quantified using an extinction coefficient of 28,000 M^−1cm^−1 (Shimizu et al; Methods in Enzymology, 1990 Vol 187, 296-306). As shown in Example. 1, 100% of the DPAn-6 was efficiently converted to its conjugated diene derivative under these conditions, whereas about 85% of DPAn-3 and 50% of DHA were converted to their respective conjugated diene (mono-hydroxy) derivative by the 15-lipoxygenase. No appreciable accumulation of the dihydroxy derivatives occurred under these reaction conditions.

[5] = tested on: Inflammatory eicosanoid secretion; assay: Consumption of LCPUFA oils: inflammatory eicosanoid secretion; type: in vivo; conditions: compared to DHA alone
[6] = tested on: Carrageenan-induced hind paw edema; assay: Rat paw edema study with LCPUFA-containing diets; type: in vivo, Sprague Dawley rats; conditions: diets fed 4 weeks, 1% carrageenan, 3 hours post-injection, Day 28
Method: Adult, male, Sprague Dawley rats (n=10/treatment group) were fed modified AIN-76 diets formulated to include 1.2% DHA, 1.2% DHA+0.44% DPAn-6, or 1.2% DHA+0.46% arachidonic acid (ARA) for 4 weeks. Carrageenan (1%) was used to induce hind paw edema on Day 14 (left paw) and Day 28 (right paw) of feeding. Edema was measured plethysmographically using water displacement 3 hours post-injection. Similar results were obtained on day 14. *p≦0.05.

| converted to conjugated diene (mono-hydroxy) derivative by the 15-lipoxygenase (Soybean 15-lipoxygenase) | Compound | total number of cells in the air pouch (cell infiltration) [1] | secretion of MCP-1 in air pouch exudates [2] | secretion of IL-1β in air pouch exudates (IL-1β) | also measured |
| --- | --- | --- | --- | --- | --- |
| – | CCCCCC(O)/C=C/C=C\C/C=C\C/C=C\C/C=C\CCC(=O)O (stereo not shown) [17-hydroxy DPAn-6] | significant reductions; also recorded: more potent than both 17R-hydroxy DHA and indomethacin | significant reductions; also recorded: larger inhibition of MCP-1 secretion than indomethacin | significant reductions | – |
| – | 10,17-dihydroxy DPAn-6 | significant reductions | significant reductions; also recorded: larger inhibition of MCP-1 secretion than indomethacin | significant reductions; also recorded: significantly larger than with that produced by either the DHA oxylipin derivative or indomethacin | reducing TNFα secretion by T lymphocytes [3]: more potent than the DHA analog (10,17,dihydroxy DHA) |
| ~50% | CC/C=C\C/C=C\C/C=C\C/C=C\C/C=C\C/C=C\CCC(=O)O [DHA, docosahexaenoic acid (C22:6n-3), reference compound] | – | – | – | reduction in inflammatory cytokine production [4]: 13-29% |
| about 85% | CC/C=C\C/C=C\C/C=C\C/C=C\C/C=C\CCCCCC(=O)O [DPAn-3, docosapentaenoic acid (C22:5n-3)] | – | – | – | – |
| – | CCCCC/C=C\C/C=C\C/C=C\C/C=C\CCCC(=O)O [ARA, arachidonic acid (C20:4n-6)] | – | – | – | reduction in edema volume [6]: reversed the anti-inflammatory activity of DHA |

| Compound | converted to conjugated diene (mono-hydroxy) derivative by the 15-lipoxygenase (Soybean 15-lipoxygenase) | total number of cells in the air pouch (cell infiltration) [1] | secretion of MCP-1 in air pouch exudates [2] | secretion of IL-1β in air pouch exudates (IL-1β) | also measured |
| --- | --- | --- | --- | --- | --- |
| docosapentaenoic acid (C22:5n-6) [DPAn-6] | 100% | – | – | – | Inflammatory eicosanoid secretion [5]: significantly reduced |
